US10485795B2, “FXR (NR1H4) binding and activity modulating compounds” (Gilead Sciences, Inc., priority 2011, dated 2019)
In brackets after ≈: the same amount, converted by molar mass.

Columns and labels:
Aqueous solubility assay = type: physicochemical; conditions: PBS buffer, kinetic from dmso stock, pH 7.4, theoretical final concentration of 200 μM
Method: The aq. solubility in PBS, pH 7.4 was determined as follows. A 10 mM compound stock solution in DMSO was added to PBS (pH 7.4) to reach a theoretical final concentration of 200 μM. The resulting solution/suspension was shaken at 1250 rpm for 1 h and then stored in the dark at rt for 23 h. At this time any precipitate is separated from the solution by centrifugation at 3900 rpm for 30 min. The aq. solubility was determined by comparing the peak area of the principle peak in a calibration standard (200 μM) in an organic solvent (methanol/water 60:40, v/v) with the peak area of the corresponding peak in the buffer sample. As detection method was used HPLC-UV/VIS at 230 nm.

[1] = Parallel Artificial Membrane Permeation Assay (PAMPA); type: in vitro ADME; conditions: Flux (%) = (c acceptor well) / sum (c donor well + c acceptor well) × 100 × 2; PBS pH 7.4, 15-16 h at rt
Method: For the PAMPA, 5 mM stock solutions of test items were prepared in DMSO. 5 mM stock solutions of reference items were prepared in EtOH (carbamazepine, guanabenz) or in EtOH:H2O 1:1 (v/v) (ceftriaxone), respectively. Compounds were diluted in PBS (pH 7.4) to obtain the starting solutions containing 5% of the respective organic solvent and 250 μM reference compounds or 10 μM test items, respectively. For the assay, a modified procedure of the PAMPA as described by Kansy et al. Kansy et al. (J. Med. Chem. 1998, 41, 1007) was used. The reference compounds for low (ceftriaxone), medium (guanabenz) and high permeation (carbamazepine) were included as internal controls.
Permeation experiments were carried out in a Multiscreen 96 well tray (donor) covered by a 96-well Multiscreen Immobilon (acceptor). The hydrophobic filter material of the Immobilon plate was pre-wetted with 70% ethanol and treated with a solution of lipids (lecithin dissolved in dodecane). The donor plate was filled with test compounds and reference compounds and both plates were inserted into each other and placed onto an orbital shaker for 15 min at 100 rpm. The transport study was started by applying 150 μL PBS-buffer containing the test and reference compounds to the donor plate. After 15-16 h of diffusion at rt, the contents of the acceptor and donor plate were collected and quantified using LC/MS-detection (test items) or by UV spectroscopy using a Spectramax Plus^384 (Molecular Devices) (reference items). The absorption maxima for the reference items ceftriaxone, guanabenz and carbamazepine were 240 nm, 270 nm and 286 nm, respectively. Recovery samples were prepared as described for the permeation assay samples and were incubated in representative vials during the permeation period under the same conditions.
For LC/MS analysis of the test items, 100 μL incubate were removed from acceptor and donor compartment and processed for acetonitrile (ACN) precipitation as described below. Additionally, test item samples from the lipid layer were extracted by flushing each well two times with 150 μL EA. The solutions were collected in 1.5 mL reaction tubes and the solvent was evaporated. The dried residues were resuspended in a PBS/DMSO/ACN mixture reflecting the composition of the acceptor and donor samples (i.e. 100 μL buffer supplemented with 5% DMSO, 200 μL ACN+ISTD). The final solvent content of each sample was 66% ACN.
Samples from donor and acceptor compartments and calibration standards were precipitated by addition of 200 μL ACN/ISTD or 400 μL ACN/ISTD, respectively. After vigorous shaking (10 seconds) and centrifugation (5 min at 4800×g, rt), the particle free supernatants were subjected to LC-MS/MS. Membrane compartments were extracted as described above. […]

O=C(O)c1cccc([C@H]2C[C@](O)(c3ccc(OCc4c(-c5c(Cl)cccc5Cl)noc4C4CC4)cc3Cl)C2)c1 [drawing 47]
solubility at 24 h (Aqueous solubility assay): 192 µM (≈ 112 µg/mL)
PAMPA, Membrane permeability in % Flux [1]: 24.0 % Flux

O=C(O)c1cccc(N2CC(O)(c3ccc(OCc4c(-c5c(Cl)cccc5Cl)noc4C4CC4)cc3Cl)C2)c1
solubility at 24 h (Aqueous solubility assay): 195 µM (≈ 114 µg/mL)

O=C(O)c1cccc(C2CC2c2ccc(OCc3c(-c4c(Cl)cccc4Cl)noc3C3CC3)cc2Cl)c1 (stereo not drawn) [reference compound]
solubility at 24 h (Aqueous solubility assay): 20 µM (≈ 11.1 µg/mL)
PAMPA, Membrane permeability in % Flux [1]: 13.6 % Flux

O=C(O)c1ccc(C2CC2c2ccc(OCc3c(-c4c(Cl)cccc4Cl)noc3C3CC3)cc2Cl)cc1 (stereo not drawn) [reference compound]
solubility at 24 h (Aqueous solubility assay): 72 µM (≈ 39.9 µg/mL)
PAMPA, Membrane permeability in % Flux [1]: 20.7 % Flux

O=C(O)c1ccc(C2CC(O)(c3ccc(OCc4c(-c5c(Cl)cccc5Cl)noc4C4CC4)cc3Cl)C2)cc1 (stereo not drawn)
solubility at 24 h (Aqueous solubility assay): 192 µM (≈ 112 µg/mL)
PAMPA, Membrane permeability in % Flux [1]: 21.1 % Flux
